Where “and” joins values, the source holds several entries; their conditions need not be identical. Identical values can stand only once.
Key:
[1] = tested on: HIV-1 expression in PBMC cultures from HIV-1 infected subjects on cART; assay: Induced HIV-1 expression in PBMC cultures from HIV-1 infected subjects on cART (HIV-1 RNA in culture supernatant, COBAS TaqMan); assay type: cell-based, human; settings: for Fold HIV-1 Activation, Geometric Mean with ≧2-Fold-Activation / Fold HIV-1 Activation, Range with ≧2-Fold-Activation: N = 5 subjects
Method: In some experiments, IL-15, the TLR8 modulating compound of Example 15 or the combination of IL-15 and Example 15 were used at the indicated concentrations (Table 4). The cultures were maintained in the presence of antivirals (elvitegravir and efavirenz at 100 nM each) to prevent viral spread and amplification in order to measure the quantity of virus produced (latency reversal) by the TLR8 modulating compounds. At the end of the incubation period, cell-free culture supernatants were harvested and HIV-1 RNA levels were quantified by the COBAS® AmpliPrep/COBAS®TaqMan HIV-1 Test, v2.0 (Roche).
In each table, fold-activation is calculated as a ratio of HIV-1 RNA copies per ml of cell culture supernatants from TLR8 agonist treated samples and DMSO treated controls. Geometric mean fold-activation from three independent incubation samples for each condition of each subject's PBMCs.
To assess if the latency reversal induced by TLR8 agonism could further potentiate latency reversal by a separate mechanisms, we treated cells as described above with IL-15, Example 15, or a combination of IL-15 and Example 15 (Table 4).

[2] = tested on: serum cytokines and chemokines associated with TLR8 activation; assay: Induction of cytokines and chemokines in Rhesus macaques (serum, Luminex); assay type: in vivo
Method: The TLR8 modulator of Example 65 was formulated in 2% ethanol, 40% polyethylene glycol 300, and 58% 0.01 N hydrochloric acid. Oral solutions of formulations were prepared by dissolving a sufficient amount of the compound in the 2% ethanol, 40% polyethylene glycol 300, and 58% 0.01 N hydrochloric acid vehicle to arrive at 0.5, 1.5, or 5 mg/ml of Example 65. Rhesus macaques were dosed orally with 1.2 to 2 mls/kg to achieve dose levels of 1, 3, 6, or 10 mg/kg Example 65. Blood samples were collected at 2, 4, 8, 12, 24 and 48 hours postdose (FIG. 5) and allowed to clot under ambient conditions prior to centrifugation to obtain serum. The indicated cytokines and chemokines were quantified in serum with a multiplexed Luminex® assay following the manufacturer's instructions (Life Technologies). […] At 10 and 6 mg/kg, IL-12, IL-1RA and MCP-1 peaked near 10 ng/ml and IL-6 peaked at 1 ng/ml.

[3] = tested on: HIV-specific polyfunctional CD8 T cells; assay: Induced HIV-specific polyfunctional CD8+ T cells in PBMC cultures from HIV-1 infected subjects on cART; assay type: cell-based, human; settings: for Median HIV-specific polyfunctional CD8 T cells (% proliferating CD8+ cells double positive for IFN-γ and TNF-α): 5 subjects, vehicle 0.73% (Example 15 group), 0.13% (Example 98 group)
[4] = Example 15 1000 nM and/or IL-15 1 nM, subjects 205-210

With `CCC[C@@H](CO)Nc1nc(N)nc2cc(F)c(F)cc12` [Example 119, (S)-2-((2-amino-6,7-difluoroquinazolin-4-yl)amino)pentan-1-ol, reference compound] the “Fold HIV-1 Activation” value ([1]; 156 nM, 4 days, individual subjects 151-155, vs DMSO) was 3.6 fold and 4.9 fold and 0.4 fold, the “Fold HIV-1 Activation, Geometric Mean with ≧2-Fold-Activation” value ([1]; 156 nM) was 4.2 fold and the “Fold HIV-1 Activation, Range with ≧2-Fold-Activation” value (“Fold HIV-1 Activation, Range” below) ([1]; 156 nM) was 3.6-4.9 fold. The “N with ≧2-Fold-Activation” value ([1]; 156 nM, subjects 151-155) was 2 of 3, the “N with ≧2-Fold-Activation (%)” value ([1]; 156 nM, subjects 151-155) was “(67) %” and the “Fold HIV-1 Activation” value ([1]; 625 nM, 4 days, individual subjects 151-155, vs DMSO) was 3.4 fold and 4.1 fold and 4.8 fold and 0.3 fold and 0.5 fold. The “Fold HIV-1 Activation, Geometric Mean with ≧2-Fold-Activation” value ([1]; 625 nM) was 4.1 fold, the “Fold HIV-1 Activation, Range” value ([1]; 625 nM) was 3.4-4.8 fold and the “N with ≧2-Fold-Activation” value ([1]; 625 nM, subjects 151-155) was 3 of 5. The “N with ≧2-Fold-Activation (%)” value ([1]; 625 nM, subjects 151-155) was “(60) %”, the “Fold HIV-1 Activation” value ([1]; 2,500 nM, 4 days, individual subjects 151-155, vs DMSO) was 4.1 fold and 4.2 fold and 3.2 fold and 5.2 fold and 2.2 fold and the “Fold HIV-1 Activation, Geometric Mean with ≧2-Fold-Activation” value ([1]; 2,500 nM) was 3.6 fold. The “Fold HIV-1 Activation, Range” value ([1]; 2,500 nM) was 2.2-5.2 fold, the “N with ≧2-Fold-Activation” value ([1]; 2,500 nM, subjects 151-155) was 5 of 5 and the “N with ≧2-Fold-Activation (%)” value ([1]; 2,500 nM, subjects 151-155) was “(100) %”. For the same molecule, the “Fold HIV-1 Activation, Geometric Mean with ≧2-Fold-Activation” value ([1]; 156, 625, or 2500 nM) was 4.1 fold, the “Fold HIV-1 Activation, Range” value ([1]; 156, 625, or 2500 nM) was 2.2-5.2 fold and the “N with ≧2-Fold-Activation” value ([1]; 156, 625, or 2500 nM, subjects 151-155) was 5 out of 5 and 5 of 5.
For `CCCC[C@](C)(CNC(C)=O)Nc1nc(N)nc2cc(Cl)cnc12` [Example 65], the “Induction of cytokines associated with TLR8 activation, including IL-12, IL-6, IL-1RA and MCP-1” value ([2]; oral, 1, 3, 6, or 10 mg/kg) was “induced in a dose-dependent manner”, the “Time of peak cytokine concentrations post-dose” value ([2]; oral, 1, 3, 6, or 10 mg/kg) was 2 h and the “Serum IL-1RA peak” value ([2]; oral, 10 and 6 mg/kg) was roughly 10 ng/mL. The “Serum IL-6 peak” value ([2]; oral, 10 and 6 mg/kg) was 1 ng/mL, the “Serum IL-12 peak” value ([2]; oral, 10 and 6 mg/kg) was roughly 10 ng/mL and the “Serum MCP-1 peak” value ([2]; oral, 10 and 6 mg/kg) was roughly 10 ng/mL.
For “IL-15: interleukin IL-15, used at 1 nM as a separate latency reversal mechanism”, the “Fold HIV-1 Activation, Geometric Mean” value ([1]; Example 15 1000 nM and/or IL-15 1 nM, N = 6 subjects) was 2.9 fold, the “Fold HIV-1 Activation” value ([1]; Example 15 1000 nM and/or IL-15 1 nM, individual subjects 205-210, vs DMSO) was 2.6 fold and 3.3 fold and 4.4 fold and 6.3 fold and 1.4 fold and 1.6 fold and the “N with ≧2-Fold-Activation” value [1, 4] was 4 of 6. For the same molecule, the “N with ≧2-Fold-Activation (%)” value [1, 4] was 66%.
With `CCCCC(C)(CO)Nc1nc(N)nc2cc(F)cnc12` (stereo not drawn) [Example 98] the “Patients in whom increases were seen” value ([3]; 100 nM) was 4 of 5, the “Median HIV-specific polyfunctional CD8 T cells (% proliferating CD8+ cells double positive for IFN-γ and TNF-α)” value ([3]; 100 nM with HIV peptide pool) was 0.93% and the “Patients in whom increases were seen” value ([3]; 1000 nM) was 4 of 5. For the same molecule, the “Increase of median HIV-specific polyfunctional CD8 T cells” value ([3]; 1000 nM combined with the HIV specific peptide pool, p<0.05) was 7.1 fold and the “Median HIV-specific polyfunctional CD8 T cells (% proliferating CD8+ cells double positive for IFN-γ and TNF-α)” value ([3]; 1000 nM with HIV peptide pool) was 0.92%.

Source: patent US20170071944A1, “MODULATORS OF TOLL-LIKE RECEPTORS FOR THE TREATMENT OF HIV” (Gilead Sciences, Inc., priority 2015, published 2017)
